We go through 6 molecules from EP0224596A1, “Use of dibenzocyclooctadiene lignans extracted from Schisandrae Fructus for the manufacture of a medicament for the treatment of hepatic failure” (priority 1985, dated 1986).

Series [1] deals with mice with acute hepatic failure. In words: Effect on survival ratio of mice with acute hepatic failure (heat-killed P. acnes + LPS). The series is classed as in vivo, male balb/c strain mice. The settings on record: survival twenty-four hours after injection of LPS, control 7.5. On the procedure: Seven groups of male balb/c strain mice (six weeks of age) were used. Each group included 40 mice. Acute hepatic failure was induced by the injection of 1 µg/mouse of LPS (lipopolysaccharide, Difco Laboratories) to mice that had been injected with 1 mg/mouse of heat-killed P. acnes (Propionibacterium acnes, First Department of Biochemistry in Osaka City Univ. Medical School) seven days before. The above obtained compounds (deoxyschizandrin, gomisin N, schizandrin, gomisin A, q-schizandrin and wuweizisu C) which had been suspended in 0.5% CMC (carboxymethyl cellulose, Wako Junyaku Kogyo, Co. Ltd.), was given p.o. to each group eight hours after the injection of LPS. Only vehicle (CMC) was given p.o. to one remaining group as a control group.
Survival ratio of mice was periodically examined twenty-four hours after induction of acute hepatic failure. Each dose of the above compounds and corresponding survival ratio twenty-four hours after the injection of LPS are shown in Table 1.

The nature of series [2]: Acute toxicity LD50, p.o. The settings on record: mouse, in vivo, po; p.o. in ddY mice. From the text:
And estimated clinical daily doses of the present therapeutic drugs for patients with hepatic failure are also given in Table 2.

The subject of series [3] is rats with acute hepatic failure. In words: Survival ratio and serum GOT in acute hepatic failure induced by P. acnes + LPS. The series is classed as in vivo, male Wistar rats. The settings on record: for survival ratio: LPS on day seven, control 8.8%. On the procedure: Three groups of male Wistar rats were used. Each group included 45 rats. Each rat in all groups was injected with 10 mg/rat of P. acnes. Four days after, gomisin A (100mg/kg, […]) obtained in Production Example 3 were suspended in 2% Tween 80/saline and administered i.p. to respectively two of three groups. Only vehicle (2% Tween 80/saline) was administered i.p. to one remaining group as a control group. All rats were injected with 50µg/rat of LPS, seven days after the injection of P. acnes. Twenty-four hours after the injection of LPS, blood samples were collected from surviving rats by heart puncture, and serum GOT activities were measured. GOT is one of amino acid transferases contained in liver cells. High serum GOT activities reflect large number of destroyed liver cells.

Setting [4] is: dose 20 mg/kg p.o. in 0.5% CMC eight hours after LPS.
The mark [5] stands for this setting: dose 50 mg/kg p.o. in 0.5% CMC eight hours after LPS.

Broadly, the LD50 is the dose at which mortality reaches 50%. Read a low LD50 as a more toxic substance.

Regarding `COc1cc2c(c(OC)c1OC)-c1c(cc3c(c1OC)OCO3)CC(C)C(C)C2` (centres unmarked) [Gomisin N, gomisin N], in series [1] (setting [4]), the “Survival Ratio (%)” value is recorded as 80%. Moreover, the LD50 in series [2] was 2000 mg/kg.
As to `COc1cc2c(c(OC)c1OC)-c1c(cc3c(c1OC)OCO3)CC(C)C(C)(O)C2` (centres unmarked) [Gomisin A, gomisin A], the “Survival Ratio (%)” value in series [1] (dose 10 mg/kg p.o. in 0.5% CMC eight hours after LPS) was determined as 80%. The molecule further gave a median lethal dose (LD50) in series [2] of 777 mg/kg. Besides, the survival ratio in series [3] (50mg/kg i.p. in 2% Tween 80/saline four days after P. acnes) is given as 83.3%; in series [3] (100mg/kg i.p. in 2% Tween 80/saline four days after P. acnes) it was 100%. Moreover, the “average serum GOT activities” value in series [3] (100mg/kg i.p., surviving rats, twenty-four hours after injection of LPS, control 7000 IU) came out at 140 IU.
Take `COc1cc2c(c(OC)c1OC)-c1c(cc(OC)c(OC)c1OC)C[C@H](C)[C@H](C)C2` [Deoxyschizandrin, deoxyschizandrin]: in series [1] (setting [5]), the “Survival Ratio (%)” value is recorded as 55%. Further, the 50% lethal dose (LD50) in series [2] worked out at 2000 mg/kg.
Turning to `COc1cc2c(c(OC)c1OC)-c1c(cc(OC)c(OC)c1OC)C[C@](C)(O)[C@@H](C)C2` [Schizandrin, schizandrin], the “Survival Ratio (%)” value in series [1] (setting [5]) is 50%. Moreover, the 50% lethal dose (LD50) in series [2] stood at 1450 mg/kg.
`COc1c2c(cc3c1-c1c(cc4c(c1OC)OCO4)CC(C)C(C)C3)OCO2` (centres unmarked) [Wuweizisu C]: the “Survival Ratio (%)” value in series [1] (setting [4]) was determined as 70%. Further, in series [2], the LD50 came to 2000 mg/kg.
For `COc1cc2c(c(OC)c1OC)-c1c(cc3c(c1OC)OCO3)CC(C)C(C)C2` (centres unmarked) [γ-Schizandrin, γ-schizandrin], the “Survival Ratio (%)” value in series [1] (setting [5]) is reported as 60%.
